Assay results: ChEMBL document CHEMBL6071150, “From lab to clinic: The discovery and optimization journey of PI3K inhibitors” (Eur J Med Chem, 2024)
Each block holds one molecule with its values, some of them ahead of it.

What was measured:
[1] = Volume of distribution at steady state in mouse at 1 mg/kg, iv; type: ADME, organism-based; details: in vivo, read-out: Vdss
[2] = AUC in mouse plasma at 5 mg/kg, po; type: ADME, organism-based; details: in vivo
[3] = Cmax in mouse plasma at 50 mg/kg, po; type: ADME, organism-based
[4] = Clearance in mouse at 1 mg/kg, iv; type: ADME, organism-based; details: in vivo
[5] = Oral bioavailability in mouse plasma at 5 mg/kg by LC-MS/MS analysis; type: ADME, organism-based
[6] = Cmax in mouse plasma at 5 mg/kg, po; type: ADME, organism-based
[7] = Plasma protein binding in mouse; type: ADME, cell-free; details: read-out: PPB (converted)
[8] = AUC in mouse plasma at 50 mg/kg, po; type: ADME, organism-based; details: in vivo
[9] = Oral bioavailability in mouse plasma at 50 mg/kg by LC-MS/MS analysis; type: ADME, organism-based
[10] = Cmax in rat at 3.4 mg/kg, po; type: ADME, organism-based; details: in vivo
[11] = Clearance in rat liver microsomes; type: ADME, Microsome
[12] = Cmax in mouse at 1 mg/kg, iv; type: ADME, organism-based; details: in vivo
Cytochrome P450 3A4 = Cytochrome P450 3A4 (Homo sapiens, UniProt P08684); experiment: Inhibition of CYP3A4 (unknown origin); type: ADME
[13] = Half life in monkey; type: ADME, Macaca mulatta; details: rhesus monkey, in vivo
[14] = Metabolic stability in mouse liver microsomes assessed as half life; type: ADME, Microsome
[15] = Oral bioavailability in mouse; type: ADME, organism-based; details: in vivo
[16] = Oral bioavailability in Dog; type: ADME, organism-based, Canis lupus familiaris; details: in vivo
[17] = Intrinsic clearance in rat liver microsomes; type: ADME, Microsome; details: read-out: CLH (converted)
[18] = Oral bioavailability in human; type: ADME, organism-based; details: in vivo
MCF7 = experiment: cells; details: Homo sapiens, MCF7, 96 h
[19] = Oral bioavailability in mouse at 3 mg/kg by LC-MS/MS analysis; type: ADME, organism-based; details: in vivo
[20] = AUC (0 to t) in SCID mouse at 3 mg/kg, iv; type: ADME, organism-based; details: in vivo
[21] = Volume of distribution at steady state in mouse at 3 mg/kg, iv; type: ADME, organism-based; details: in vivo
[22] = Cmax in SCID mouse at 3 mg/kg, iv measured upto 24 hrs by LC/MS-MS analysis; type: ADME, organism-based; details: in vivo
[23] = Oral bioavailability in Beagle dog at 3 mg/kg by LC-MS/MS analysis; type: ADME, organism-based, Canis lupus familiaris; details: in vivo
[24] = Oral bioavailability in rat at 3 mg/kg by LC-MS/MS analysis; type: ADME, organism-based; details: in vivo
[25] = Half life in SCID mouse at 3 mg/kg, po; type: ADME, organism-based; details: in vivo
[26] = Oral bioavailability in mouse at 1 mg/kg; type: ADME, organism-based; details: in vivo
[27] = Oral bioavailability in rat at 1 mg/kg; type: ADME, organism-based; details: in vivo
[28] = biological target: Phosphatidylinositol 4,5-bisphosphate 3-kinase catalytic subunit alpha isoform (Homo sapiens, UniProt P42336); experiment: Inhibition of GST-tagged human recombinant PI3K-p110alpha extracted from baculovirus-infected Sf9 insect cells incubated for 1 hr by microbeta counter analysis
CYP450 = CYP450 (Homo sapiens, UniProt P04798+P05177+P05181+P08684+P10632+P10635+P11509+P11712+P13584+P20813+P20815+P20853+P24462+P24903+P33260+P33261+P51589+P78329+P98187+Q02928+Q08477+Q16678+Q16696+Q5TCH4+Q6VVX0+Q7Z449+Q8TAV3+Q96SQ9+Q9HB55); experiment: Inhibition of CYP450 (unknown origin); type: ADME, protein assay

Chain of Phosphatidylinositol 4,5-bisphosphate 3-kinase catalytic subunit alpha isoform (P42336 whole entry, canonical isoform): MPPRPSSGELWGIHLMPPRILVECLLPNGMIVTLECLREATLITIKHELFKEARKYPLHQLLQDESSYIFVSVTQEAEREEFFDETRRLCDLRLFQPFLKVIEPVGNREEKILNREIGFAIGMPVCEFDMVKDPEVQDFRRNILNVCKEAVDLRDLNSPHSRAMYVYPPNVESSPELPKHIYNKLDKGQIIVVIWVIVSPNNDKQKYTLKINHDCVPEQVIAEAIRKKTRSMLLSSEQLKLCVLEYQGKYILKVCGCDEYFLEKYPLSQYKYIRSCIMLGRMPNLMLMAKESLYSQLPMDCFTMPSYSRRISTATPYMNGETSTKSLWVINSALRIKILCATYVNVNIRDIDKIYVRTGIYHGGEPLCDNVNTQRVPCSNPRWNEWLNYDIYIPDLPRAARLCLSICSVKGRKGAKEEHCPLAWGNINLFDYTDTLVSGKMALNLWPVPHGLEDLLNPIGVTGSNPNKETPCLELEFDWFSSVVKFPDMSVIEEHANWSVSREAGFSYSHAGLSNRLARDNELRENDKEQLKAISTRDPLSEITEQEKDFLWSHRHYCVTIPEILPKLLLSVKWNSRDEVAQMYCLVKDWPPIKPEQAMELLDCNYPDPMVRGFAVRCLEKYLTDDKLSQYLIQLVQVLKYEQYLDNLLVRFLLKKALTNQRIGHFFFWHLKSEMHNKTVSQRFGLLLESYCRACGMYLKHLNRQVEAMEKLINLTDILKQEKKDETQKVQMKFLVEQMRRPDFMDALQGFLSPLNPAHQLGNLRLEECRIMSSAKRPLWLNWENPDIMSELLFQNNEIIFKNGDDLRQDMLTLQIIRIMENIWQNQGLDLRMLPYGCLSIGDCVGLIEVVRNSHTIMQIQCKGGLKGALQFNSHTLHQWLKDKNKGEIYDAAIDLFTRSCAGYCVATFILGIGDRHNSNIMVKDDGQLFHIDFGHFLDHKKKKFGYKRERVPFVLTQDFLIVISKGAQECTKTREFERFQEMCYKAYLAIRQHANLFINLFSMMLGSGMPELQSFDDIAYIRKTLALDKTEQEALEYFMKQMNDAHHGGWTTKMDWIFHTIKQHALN
Chain of Cytochrome P450 3A4 (P08684 whole entry): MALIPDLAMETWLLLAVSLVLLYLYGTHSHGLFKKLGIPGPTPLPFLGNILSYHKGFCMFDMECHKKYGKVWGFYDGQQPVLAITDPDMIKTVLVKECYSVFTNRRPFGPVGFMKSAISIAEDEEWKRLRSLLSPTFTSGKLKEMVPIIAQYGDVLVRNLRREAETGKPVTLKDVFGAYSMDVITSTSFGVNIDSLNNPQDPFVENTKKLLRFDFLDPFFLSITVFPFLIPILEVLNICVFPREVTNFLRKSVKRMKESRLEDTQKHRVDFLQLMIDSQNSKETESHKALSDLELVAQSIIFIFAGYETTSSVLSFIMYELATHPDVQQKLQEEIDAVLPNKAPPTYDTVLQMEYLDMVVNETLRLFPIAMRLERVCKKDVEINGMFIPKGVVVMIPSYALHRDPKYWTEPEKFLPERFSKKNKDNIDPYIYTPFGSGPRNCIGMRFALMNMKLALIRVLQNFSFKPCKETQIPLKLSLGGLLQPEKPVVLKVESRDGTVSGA

Vd [1]: 1.7 L/kg | AUC [2]: 10 µM·h | Cmax [3]: 24000 nM | clearance [4]: 9.2 mL/min/kg | bioavailability [5]: 56% | Cmax [6]: 2000 nM | fraction unbound [7]: 0.29 | AUC [8]: 121 µM·h | bioavailability [9]: 66%
SMILES: C[C@H](NC(=O)c1c(N)ccc2cccnc12)c1cc2cccc(Cl)c2c(=O)n1-c1ccccc1

Cmax [10]: 190 nM | CLH [11]: 29 µL/min/µg | Cmax [12]: 520 nM
SMILES: Cc1nc(NC(=O)N2CCC[C@H]2C(N)=O)sc1-c1ccnc(C(C)(C)C(F)(F)F)c1 [ALPELISIB]

IC50 (Cytochrome P450 3A4): > 20000 nM | half-life [13]: 4.3 h | half-life [14]: > 6 h
SMILES: C[C@H](NC(=O)c1c(N)nn2cccnc12)c1cc2cccc(C#Cc3cnn(C)c3)c2c(=O)n1-c1ccccc1 [EGANELISIB]

bioavailability [15]: 100% | bioavailability [16]: 80%
SMILES: COc1ncc(-c2ccc3nccc(-c4ccnnc4)c3c2)cc1NS(=O)(=O)c1ccc(F)cc1F [OMIPALISIB]

CLint scaled [17]: 5.67 mL/min/kg | bioavailability [18]: 54%
SMILES: C[C@H](Nc1ncnc2[nH]cnc12)c1cc2ccc(F)cc2nc1-c1ccccn1 [AMG-319]

IC50 (MCF7): 255 nM
SMILES: Cc1c(CN2CCN(C(=O)[C@H](C)O)CC2)sc2c(N3CCOCC3)nc(-c3cnc(N)nc3)nc12 [APITOLISIB]

IC50 (MCF7): 356 nM
SMILES: Cc1c(CN2CCN(C(=O)[C@@H](C)O)CC2)sc2c(N3CCOCC3)nc(-c3cnc(N)nc3)nc12

bioavailability [19]: 30% | AUCt [20]: 600 h/ng/mL | Vdss [21]: 1 L/kg | Cmax [22]: 1870 ng/mL | bioavailability [23]: 67% | bioavailability [24]: 70% | half-life [25]: 1.4 h
SMILES: C[C@H]1Cc2ccccc2N1C(=O)Cc1nc(N2CCOCC2)cc(=O)[nH]1 [SAR-260301]

bioavailability [26]: 75% | bioavailability [27]: 77%
SMILES: CC1(C)OCCn2c1nc1c(N3CCOCC3)nc(-c3cnc(N)nc3)nc12 [PAXALISIB]

IC50 [28]: 7.5 nM | IC50 (CYP450): > 10000 nM | CLH [11]: 62 µL/min/µg
SMILES: Cc1nc(NC(=O)N2CCC[C@H]2C(N)=O)sc1-c1ccnc(Nc2ccccc2C(C)(C)C)n1
